Test: Binding to phosphatidylcholine-coated silica beads (TRANSIL Intestinal Absorption Kit)
Conditions: compared with the physiologically active substance alone taken as 1; for Relative amount of physiologically active substance bound to the beads, Example (sophorolipid): substance emulsified with sophorolipid; for Relative amount of physiologically active substance bound to the beads, Comparative Example (sucrose fatty acid ester): substance emulsified with sucrose fatty acid ester
Method: In the evaluation herein, the binding of substances to silica beads coated with a phospholipid (phosphatidylcholine) was compared. A higher binding indicates a higher cell membrane transport and a higher intestinal absorption.
An aqueous phase was prepared and the pH was adjusted with a pH adjuster to a pH value of 6. The aqueous phase and an oil phase were heated to 50 to 60° C. The aqueous phase was added to the oil phase. The mixture was stirred with a homogenizer (HG-200, As One Corporation) at a high speed of 10,000 rpm for 10 minutes to give an emulsion.
The affinity with phosphatidylcholine-coated silica beads (TRANSIL Intestinal Absorption Kit, SOVICELL GMBH) was assessed. A volume of 200 μl of PBS (phosphate buffered saline) containing the beads was added to each tube, and 20 μl of each of the compositions was added. The mixture was agitated with a test tube mixer for 12 minutes. The beads were allowed to settle, and the supernatant was collected and diluted to 10-fold. The fluorescence intensity of the supernatant was measured with a spectrophotometer (Hitachi F-2700, excitation wavelength: 494 nm, fluorescence wavelength: 521 nm).
A volume of 200 μl of PBS containing the beads was added to each tube, and 20 μl of each of the compositions was added. The mixture was agitated with a test tube mixer for 12 minutes. The beads were allowed to settle, and the supernatant was removed. The beads were washed with PBS, and 200 μl of methanol was added to elute oil red from the beads. The absorbance of the oil red solution in methanol was measured at 510 nm with an ultraviolet spectrophotometer (Shimadzu UV-1200). The relative amount of the pigment of Example 14 or Comparative Example 4 bound to the beads was calculated, with the obtained value of an oil red solution (Comparative Example 5) taken as 1.
A volume of 200 μl of PBS containing the beads was added to each tube, and 20 μl of each of the compositions was added. The mixture was agitated with a test tube mixer for 12 minutes. The beads were allowed to settle, and the supernatant was removed. The beads were washed with PBS, and 200 μl of methanol was added to elute tocopherol from the beads. The amount of tocopherol was measured by HPLC (Shimadzu LC-10A series). The relative amount of tocopherol of Example 15 or Comparative Example 6 bound to the beads was calculated, with the obtained value of a tocopherol solution (Comparative Example 7) taken as 1.
A volume of 200 μl of PBS containing the beads was added to each tube, and 20 μl of each of the compositions was added. The mixture was agitated with a test tube mixer for 12 minutes. The beads were allowed to settle, and the supernatant was removed. The beads were washed with PBS, and 200 μl of hexane was added to elute DHA from the beads. The amount of DHA was measured by gas chromatography (Shimadzu GC-2014 series).
The relative amount of DHA of Example 16 or Comparative Example 8 bound to the beads was calculated, with the obtained value of a DHA solution (Comparative Example 9) taken as 1.
GC was used for the analysis of eicosapentaenoic acid and linoleic acid. […] An atomic absorption spectrophotometer was used for the analysis of zinc gluconate, copper gluconate, and iron citrate.
The calculated value was expressed by the symbols A, B and C. The affinities of the physiologically active substances were assessed by comparing the cases where each physiologically active substance was emulsified with a sucrose fatty acid ester or the sophorolipid and where each of the physiologically active substances was used alone.

Row | Substance | Relative amount of physiologically active substance bound to the beads, Example (sophorolipid) | Relative amount of physiologically active substance bound to the beads, Comparative Example (sucrose fatty acid ester)
1 | Copper gluconate | B (affinity of not less than 2.0-fold and less than 5.0-fold) | C (affinity of less than 2.0-fold)
2 | Iron citrate | B (affinity of not less than 2.0-fold and less than 5.0-fold) | C (affinity of less than 2.0-fold)
3 | Zinc gluconate | B (affinity of not less than 2.0-fold and less than 5.0-fold) | C (affinity of less than 2.0-fold)
